Measurements taken from paper PMC6072100, “Exploring the links between peptoid antibacterial activity and toxicity” (MedChemComm, 2017).
Square brackets hold non-standard residues; d marks the D form. Peptide text beside a SMILES is read from it. N(isopentyl)Gly = CC(C)CCNCC(=O)O; Nspe = C[C@H](NCC(=O)O)c1ccccc1; NhArg = N=C(N)NCCCCNCC(=O)O; Nlys = NCCCCNCC(=O)O

Experiments:
[1] = test system: Pseudomonas aeruginosa PA01 (ATCC 15692); format: cell-based; conditions: lowest concentration completely inhibiting growth, 37 °C, 16 h; range 2–100 μM
Method: (§1) Escherichia coli K-12 wild-type strain (W3110/ATCC27325, F^–, λ^–, rpoS(Am), rph-1, Inv(rrnD-rrnE)), Pseudomonas aeruginosa PA01 (ATCC 15692) Staphylococcus aureus (3R7089 strain Oxford/ATCC9144) and Staphylococcus epidermidis (laboratory strain from clinical isolate) were selected for bacteriological studies as representative Gram-negative (E. coli and P. aeruginosa) and Gram-positive (S. aureus and S. epidermidis) species. Bacterial cultures were prepared by streaking bacterial strains onto LB agar plates with an inoculation loop and incubated overnight at 37 °C. A single colony was selected and placed in 5 mL of Iso-sensitest broth (Oxoid, ThermoScientific) and incubated with shaking for 16–18 h at 37 °C to provide liquid cultures for testing.
(§2) MIC values were obtained according to the protocol described by J. M. Andrews et al.[58] and were conducted in 96-well plates (Sarstedt). Bacteria were grown from overnight cultures in Iso-sensitest broth to an A650nm of 0.07 equivalent to a 0.5 MacFarland standard (240 μM BaCl2 in 0.18 M H2SO4). This culture was diluted ten-fold with Iso-sensitest broth before use. Peptoids were initially dissolved in DMSO (5 mM) and diluted further in Iso-sensitest broth to achieve a concentration range of 4–200 μM using 2-fold serial dilutions. 50 μl of inoculum and 50 μl of peptoid solution were added to each test well (final concentration range of 2–100 μM). Experiments were performed in triplicate. A positive control for bacterial growth contained only the inoculum and Iso-sensitest broth. Other controls contained the inoculum and serial dilutions of ampicillin (from 250 μg mL^–1 to 2 μg mL^–1), serial dilutions of DMSO and the inoculum to confirm no inhibitory effect on bacterial growth, and Iso-sensitest broth alone as a sterile control. […] Quantitative data was attained from absorbance values using a Biotek Synergy H4 plate reader.
(§3) Antibacterial MIC determination
as §1, with “(W3110 / ATCC27325, F-, λ-,” for “(W3110/ATCC27325, F^–, λ^–,”, “Oxford / ATCC9144)” for “Oxford/ATCC9144)”, “°C.” for “°C. A single colony was selected and placed in 5 mL of Iso-sensitest broth (Oxoid, ThermoScientific) and incubated with shaking for 16–18 h at 37 °C to provide liquid cultures for testing.”
(§4) A single colony was selected and placed in 5 mL of Iso-sensitest broth (Oxoid, ThermoScientific) and incubated with shaking for 16-18 h at 37 °C to provide liquid […]
(§5) MIC values were obtained according to the protocol described by J. M. Andrews et al.1 and were conducted in 96-well plates (Sarstedt). Bacteria were grown from overnight cultures in Iso-sensitest broth to an A650nm of 0.07 equivalent to a 0.5 MacFarland standard (240 μM BaCl2 in 0.18 M H2SO4). This culture was diluted ten-fold with Iso-sensitest broth before use. Peptoids were initially dissolved in DMSO (5 mM) and diluted further in Iso-sensitest broth to achieve a concentration range of 4 – 200 µM using 2-fold serial dilutions. 50 μl of inoculum and 50 μl of peptoid solution were added to each test well (final concentration range of 2 – 100 µM). Experiments were performed in triplicate. A positive control for bacterial growth contained only the inoculum and Iso-sensitest broth. Other controls contained the inoculum and serial dilutions of ampicillin (from 250 µg/mL to 2 µg/mL), serial dilutions of DMSO and the inoculum to confirm no inhibitory effect on bacterial growth, and Iso-sensitest broth alone as a sterile control. […]
(§6) growth after incubation at 37 °C for 16 h with shaking. Quantitative data was attained from absorbance values using a Biotek Synergy H4 plate reader.

[2] = test system: Escherichia coli K-12 wild-type strain (W3110/ATCC27325); format: cell-based; conditions: lowest concentration completely inhibiting growth, 37 °C, 16 h; range 2–100 μM
Method: as §1, §2, §3
as §1, with “(W3110 / ATCC27325, F-, λ-,” for “(W3110/ATCC27325, F^–, λ^–,”, “Oxford / ATCC9144)” for “Oxford/ATCC9144)”, “°C.” for “°C. A single colony was selected and placed in 5 mL of Iso-sensitest broth (Oxoid, ThermoScientific) and incubated with shaking for 16–18 h at 37 °C to provide liquid cultures for testing.”
as §4, §5, §6

[3] = test system: Staphylococcus aureus (3R7089 strain Oxford/ATCC9144); format: cell-based; conditions: lowest concentration completely inhibiting growth, 37 °C, 16 h; range 2–100 μM
Method: as §1, §2, §3
as §1, with “(W3110 / ATCC27325, F-, λ-,” for “(W3110/ATCC27325, F^–, λ^–,”, “Oxford / ATCC9144)” for “Oxford/ATCC9144)”, “°C.” for “°C. A single colony was selected and placed in 5 mL of Iso-sensitest broth (Oxoid, ThermoScientific) and incubated with shaking for 16–18 h at 37 °C to provide liquid cultures for testing.”
as §4, §5, §6

[4] = test system: Staphylococcus epidermidis (laboratory strain from clinical isolate); format: cell-based; conditions: lowest concentration completely inhibiting growth, 37 °C, 16 h; range 2–100 μM
Method: as §1, §2, §3
as §1, with “(W3110 / ATCC27325, F-, λ-,” for “(W3110/ATCC27325, F^–, λ^–,”, “Oxford / ATCC9144)” for “Oxford/ATCC9144)”, “°C.” for “°C. A single colony was selected and placed in 5 mL of Iso-sensitest broth (Oxoid, ThermoScientific) and incubated with shaking for 16–18 h at 37 °C to provide liquid cultures for testing.”
as §4, §5, §6

[5] = Skin cell toxicity assay with HaCaT (alamarBlue); format: cell-based, human; conditions: human, HaCaT cells (keratinocytes), ED50 HaCaT
Method: The activity of our peptoid library was assessed against both bacterial and mammalian cells to gain a broader understanding of the factors that lead to effective and selective antimicrobial peptoids. We screened for broad-spectrum antibacterial activity against Gram-negative (Escherichia coli and Pseudomonas aeruginosa) and Gram-positive (Staphylococcus aureus and S. epidermidis) bacteria. The toxicity of the library was also assessed against two mammalian cell lines; HaCaT spontaneously transformed aneuploid keratinocytes were employed to model toxicity against human skin cells and HepG2, a cell line derived from a human liver carcinoma, were used as a study on polarised human hepatocytes. Detailed methods for these assays can be found in the ESI. ^‡ […]
Please note – ED50, the median effective dose, was defined as the dose that kills 50% of cells.
Cytotoxicity analyses were performed in 96-well plates (Costar, Fisher Scientific) using alamarBlue® (Invitrogen) for cell viability detection using a modified protocol as described previously. HepG2 or HaCaT cells were subcultured at 37 °C, 5% CO2 in DMEM high glucose supplemented with heat-inactivated foetal bovine sera (FBS, 10%; Biosera Ltd) and penicillin/streptomycin (P/S, 1%). Cells were counted using a Neubauer Improved Haemocytometer. HepG2 cells were seeded 1 day prior to treatment in 96 well plates at a concentration of 2 × 10^5 cells per mL in 100 μL of medium (2 × 10^4 cells per well). Then cells were pre-incubated with the compounds in triplicate in a dilution series in triplicate from 2–100 μM (5 mM stock solutions in DMSO diluted from 100 μM to 3 μM; untreated cells with DMSO as a negative control) in 50 μl of the media for 1 hour. Afterwards, 40 μL were removed from each well before the addition of 90 μL of the media, followed by incubation for 24 hours at 37 °C, 5% CO2. Then, 10 μL of alamarBlue® (Invitrogen) was added to each well before a 2 hour incubation prior to assessing cell viability using a fluorescent plate reader (Biotek; Ex 560 nm/Em 600 nm). All data were measured in triplicate on a minimum of two occasions to ensure a robust data set was collected. The ED50 values were calculated from the dose response results achieved from the serial dilutions. […]
Cells were counted using a Neubauer Improved
Haemocytometer. […]
µM to 3 µM; untreated cells with DMSO as a negative control) in 50 µl of the media for 1 hour.
Afterwards, 40 µL were removed from each well before the addition of 90 µL of the media, followed by incubation for 24 hours at 37 °C, 5% CO2. Then, 10 µL of alamarBlue® (Invitrogen) was added to each well before a 2 hour incubation prior to assessing cell viability using a fluorescent plate reader (Biotek; Ex 560 nm / Em 600 nm). All data was measured in triplicate on a minimum of two occasions to ensure a robust data set was collected. The ED50 values were calculated from the dose response results achieved from the serial dilutions.
Skin Cell Toxicity assay with HaCaT […]
alamarBlue® (Invitrogen) for cell viability detection. HaCaT cells were subcultured at 37 °C, 5% CO2 in DMEM high glucose supplemented with heat-inactivated foetal bovine sera (FBS, 10%; Biosera Ltd) and penicillin/streptomycin (P/S, 1%). Cells were counted using a Neubauer Improved Haemocytometer. HaCaT cells were seeded in the plates 24 hours prior to treatment in 96 well plates at a concentration of 2x10^5 cells/mL in 100 µL of medium (2x10^4 cells/well).
Empty wells were filled with 100 µL PBS. After 24 hours, cells were incubated with the compounds in a dilution series in triplicate from 2 – 100 µM (5 mM stock solutions in DMSO diluted from 100 µM to 3 µM; Amphotericin B was used as a positive control and untreated cells with DMSO as a negative control) in 50 µL of the media for 1 hour. Afterwards, 40 µl was removed from each well, 90 µL of medium was added to each well and the cells incubated for 24 hours at 37 °C, 5% CO2. 10 µL of alamarBlue® (Invitrogen) was added to each well before […]

SMILES	MIC P. aeruginosa [1] [µM]	MIC E. coli [2] [µM]	MIC S. aureus [3] [µM]	MIC S. epidermidis [4] [µM]	CC50 at 24 h [5] [µM]
N=C(N)NCCCCNCC(=O)N(CC(=O)N(CC(=O)N(CCCCNC(=N)N)CC(=O)N(CC(=O)N(CC(=O)N(CCCCNC(=N)N)CC(=O)N(CC(=O)N(CC(N)=O)Cc1cccc(F)c1)Cc1cccc(F)c1)Cc1cccc(F)c1)Cc1cccc(F)c1)Cc1cccc(F)c1)Cc1cccc(F)c1 [Peptoid 37, (NhArgNmfbNmfb)3]	25	6	2	1	–
CC(C)CCN(CC(=O)N(CC(N)=O)[C@@H](C)c1ccccc1)C(=O)CN(CCCCNC(=N)N)C(=O)CN(C(=O)CN(CCC(C)C)C(=O)CN(CCCCNC(=N)N)C(=O)CN(C(=O)CN(CCC(C)C)C(=O)CN(CCCCNC(=N)N)C(=O)CN(C(=O)CN(CCC(C)C)C(=O)CNCCCCNC(=N)N)[C@@H](C)c1ccccc1)[C@@H](C)c1ccccc1)[C@@H](C)c1ccccc1 [Peptoid 38, (NhArgNhLeuNspe)4] (H-[NhArg][N(isopentyl)Gly][Nspe][NhArg][N(isopentyl)Gly][Nspe][NhArg][N(isopentyl)Gly][Nspe][NhArg][N(isopentyl)Gly][Nspe]-NH2; N-terminus assumed)	25	13	1	2	–
C[C@@H](c1ccccc1)N(CC(N)=O)C(=O)CN(C(=O)CN(CCCCN)C(=O)CN(C(=O)CN(C(=O)CN(CCCCN)C(=O)CN(C(=O)CN(C(=O)CN(CCCCNC(=N)N)C(=O)CN(C(=O)CN(C(=O)CNCCCCN)[C@@H](C)c1ccccc1)[C@@H](C)c1ccccc1)[C@@H](C)c1ccccc1)[C@@H](C)c1ccccc1)[C@@H](C)c1ccccc1)[C@@H](C)c1ccccc1)[C@@H](C)c1ccccc1 [Peptoid 43, (NLysNspeNspe)(NhArgNspeNspe)(NLysNspeNspe)2] (H-[Nlys][Nspe][Nspe][NhArg][Nspe][Nspe][Nlys][Nspe][Nspe][Nlys][Nspe][Nspe]-NH2)	17	17	17	–	33
C[C@@H](c1ccccc1)N(CC(N)=O)C(=O)CN(C(=O)CN(CCCCN)C(=O)CN(C(=O)CN(C(=O)CN(CCCCN)C(=O)CN(C(=O)CN(C(=O)CN(CCCCNC(=N)N)C(=O)CN(C(=O)CN(C(=O)CNCCCCNC(=N)N)[C@@H](C)c1ccccc1)[C@@H](C)c1ccccc1)[C@@H](C)c1ccccc1)[C@@H](C)c1ccccc1)[C@@H](C)c1ccccc1)[C@@H](C)c1ccccc1)[C@@H](C)c1ccccc1 [Peptoid 42, (NhArgNspeNspe)2(NLysNspeNspe)2] (H-[NhArg][Nspe][Nspe][NhArg][Nspe][Nspe][Nlys][Nspe][Nspe][Nlys][Nspe][Nspe]-NH2)	17	17	17	–	15
C[C@@H](c1ccccc1)N(CC(N)=O)C(=O)CN(C(=O)CN(CCCCNC(=N)N)C(=O)CN(C(=O)CN(C(=O)CN(CCCCNC(=N)N)C(=O)CN(C(=O)CN(C(=O)CNCCCCNC(=N)N)[C@@H](C)c1ccccc1)[C@@H](C)c1ccccc1)[C@@H](C)c1ccccc1)[C@@H](C)c1ccccc1)[C@@H](C)c1ccccc1 [Peptoid 35, (NhArgNspeNspe)3] (H-[NhArg][Nspe][Nspe][NhArg][Nspe][Nspe][NhArg][Nspe][Nspe]-NH2; N-terminus assumed)	50	6	2	2	–
C[C@@H](c1ccccc1)N(CC(N)=O)C(=O)CN(C(=O)CN(CCCCN)C(=O)CN(C(=O)CN(C(=O)CN(CCCCNC(=N)N)C(=O)CN(C(=O)CN(C(=O)CN(CCCCN)C(=O)CN(C(=O)CN(C(=O)CNCCCCNC(=N)N)[C@@H](C)c1ccccc1)[C@@H](C)c1ccccc1)[C@@H](C)c1ccccc1)[C@@H](C)c1ccccc1)[C@@H](C)c1ccccc1)[C@@H](C)c1ccccc1)[C@@H](C)c1ccccc1 [Peptoid 44, [(NhArgNspeNspe)(NLysNspeNspe)]2] (H-[NhArg][Nspe][Nspe][Nlys][Nspe][Nspe][NhArg][Nspe][Nspe][Nlys][Nspe][Nspe]-NH2)	67	17	17	–	33
CC(C)CCN(CC(=O)N(CC(N)=O)[C@@H](C)c1ccccc1)C(=O)CN(CCCCNC(=N)N)C(=O)CN(C(=O)CN(CCC(C)C)C(=O)CN(CCCCNC(=N)N)C(=O)CN(C(=O)CN(CCC(C)C)C(=O)CNCCCCNC(=N)N)[C@@H](C)c1ccccc1)[C@@H](C)c1ccccc1 [Peptoid 39, (NhArgNhLeuNspe)3] (H-[NhArg][N(isopentyl)Gly][Nspe][NhArg][N(isopentyl)Gly][Nspe][NhArg][N(isopentyl)Gly][Nspe]-NH2; N-terminus assumed)	100	–	3	2	–
